How the values were obtained:
[1] = Stability test 1 (storage test), effective chlorine retention rate
[2] = Stability test 3 (abrasion test); type: physicochemical; details: uncoated; storage 40° C., 75% RH, 3 months
Method: In order to evaluate a stability in the case where a physical impact was applied to the solid bleaching agent-containing materials having a coating layer prepared in Examples 1, 25, 28, 31, 35, 36, 37, 38, and 39, an abrasion test was carried out by using a tablet abrasion tester (manufactured by Toyama Sangyo Co., Ltd.). This tablet abrasion tester is composed of a plastic drum container having an inner diameter of about 286 mm and a depth of about 38 mm, and an electric part rotating the drum container in a vertical direction. Inside the drum container, a partition plate is provided so that a test sample in the container is lifted up to about 157 mm in height and falls each time when the drum container makes one rotation. Such a tablet abrasion tester is readily available. […]
The case where the effective chlorine retention rate was less than 5% was evaluated as failed which is denoted by B because an effect of improving stability was hardly recognized. The case where the effective chlorine retention rate was 5% or more and less than 10% was evaluated as pass which is denoted by A, because an effect of improving stability was recognized. The case where the effective chlorine retention rate was 10% or more was evaluated as particularly excellent among passes, which is denoted by S. The results were as shown in Table 27.

[3] = Stability test 2 (long-term storage test); type: physicochemical; details: in pasty detergent composition
Method: In a stainless steel beaker were charged 5 g of distilled water and 3 g of potassium carbonate, and the potassium carbonate was dissolved. […] . The pasty detergent composition heated to 60° C. was accurately weighed within a range of from 2.5 to 3.5 g, a mass thereof was recorded up to 3 decimal places, and added so as to be superimposed on the solid bleaching agent-containing material or sodium dichloroisocyanurate, to thereby prepare detergent compositions containing the solid bleaching agent-containing material or the solid bleaching agent. […] One month later, the entire amount of the detergent composition containing the solid bleaching agent-containing material or the solid bleaching agent in the cup was dissolved in about 100 ml of distilled water, and the effective chlorine retention rate was evaluated from the effective chlorine content in the same manner as in the case of the stability test 1.
. […] The case where the effective chlorine retention rate was less than 5% was evaluated as failed which is denoted by B, because an effect of improving stability was hardly recognized. The case where the effective chlorine retention rate was 5% or more was evaluated as pass which is denoted by A, because an effect of improving stability was recognized. […]

[4] = Stability test 1 (storage test), effective oxygen retention rate; details: uncoated solid bleaching agent (before coating)
[5] = per 100 g of water; cited from earlier work
[6] = uncoated solid bleaching agent (before coating)

Stability test 1: before coating, effective oxygen retention rate (%) [4]	Structure (SMILES)	Stability test 1: before coating, effective chlorine retention rate (%) [1, 6]	Stability test 1: before coating, effective chlorine retention rate (%) ([1]; unprocessed solid bleaching agent mixed with detergent components and 3 ml tap water at 60° C., 18 hours at room temperature)	Stability test 3: before coating, effective chlorine retention rate (%) [2]	Stability test 2: effective chlorine retention rate ([3]; 1 month, 40° C., 75% RH)	Stability test 2: before coating, effective chlorine retention rate (%) ([3]; uncoated, after 1 month)	solubility with respect to water of 100 g [5]
–	O=c1nc([O-])n(Cl)c(=O)n1Cl.[Na+] [Sodium dichloroisocyanurate]	12%	12%	0%	0%	0%	–
25%	O=C([O-])[O-].O=C([O-])[O-].OO.OO.OO.[Na+].[Na+].[Na+].[Na+] [Sodium percarbonate]	–	–	–	–	–	–
–	O=c1n(Cl)c(=O)n(Cl)c(=O)n1Cl [trichloroisocyanuric acid, Trichloroisocyanuric acid]	30%	–	–	–	–	1.2 g
